Patent US10512624B2, “Long-chain amphipathic dicarboxylic acids for treatment of diabetes type-1” (Syndromex Ltd., priority 2016, dated 2019)
Where two headings read alike, the source gives them in different places.

Key:
hepatic gluconeogenesis = assay: Suppression of hepatic gluconeogenesis in STZ diabetic rats (RT-PCR, Western blot, cAMP kit); type: in vivo, rat
Experimental: (§1) Administering a combination of Medica16αα and insulin was performed by treating STZ diabetic rats (FBG >300 mg/dl) with oral MEDICA16αα(15 mg/kg b.i.d) for five consecutive days, then MEDICA16αα-responsive rats were further treated with MEDICA16αα(15 mg/kg b.i.d) for 10 additional consecutive days (“STZ/MEDICA Res”), and MEDICA16αα non-responsive rats (FBG >250 mg/dl) were further treated for 10 additional consecutive days with either insulin Neutral Protamine Hagedorn (NPH) (3 u/kg b.i.d subcutaneously) (“STZ/NPH”), or with insulin NPH (3 u/kg b.i.d subcutaneously in combination with oral MEDICA16αα(15 mg/kg b.i.d) (“STZ/MEDICA NPH”).
Sampled frozen tissue was homogenized (Polytron) in lysis buffer (50 mM Tris HCl, pH 8.0, 1% Triton X-100, 1 mM EGTA, 1 mM EDTA, 150 mM NaCl, 5 mM NaPPi, 50 mM NaF, 1 mM PMSF, 1 mM Na Vanadate, 40 nM bpVfan and protease inhibitor cocktail (Sigma)), and centrifuged for 15 min at 12,500 rpm.
Protein lysates were prepared in sodium dodecyl sulfate (SDS) sample buffer (62 mM Tris (pH 6.8), 2.3% SDS, […] mercaptoethanol, 10% glycerol), and were subjected to SDS-PAGE, electro-transferred onto cellulose nitrate membranes (Schleicher & Schuell) and probed with the indicated first antibody, followed by HRP-labeled second antibody. Protein concentration was determined by BCA (Thermo Scientific). Bands were detected by ECL, and the intensity of individual bands was determined by densitometry using ImageJ 1.48 v software.
Sampled frozen tissue was homogenized (Polytron) in lysis buffer (50 mM Hepes (pH 7.4), 150 mM NaCl, 10% Glycerol, 1.5 mM MgCl2, 1 mM EGTA, 1% Triton, 50 mM β-glycerolphosphate, 25 mM NaF, 1 mM Na-vanadate, 40 nM bpVphen, protease inhibitor mix (Sigma) and 17.5 mg/ml octyl beta-D-glucopyranoside (Sigma)). Lysates were kept on ice for 30 min and centrifuged at 12000 rpm for 15 min. Lysates ([…]) were incubated for 4 h with protein A/G beads (Santa Cruz Biotechnology) pre-loaded with the indicated antibody. The immune-precipitate was rinsed 3 times with washing buffer (20 mM Hepes (pH 7.4), 150 mM NaCl, 0.1% Tx-100, 10% glycerol), re-suspended in SDS sample buffer, boiled for 8 min, and analyzed by SDS-PAGE.
Total RNA was prepared using the TRI reagent (Sigma Aldrich). First-strand cDNA used as template was synthesized by reverse transcription using oligo(dT) as primer and the Reverse-iTMAX First Strand Kit (ABgene, Epson). Glucose-6-phosphatase (G6Pase) and phosphoenolpyruvate carboxykinase (PEPCK) transcripts normalized by tubulin were quantified by real-time PCR (Rotor Gene RG-3000A) using SYBER green MasterMix (Absolute Syber Green ROX Mix, ABgene) and the following primers: […]
(§2) Pancreas and plasma insulin and glucagon content were determined by insulin (Millipore, Cat #RI-13K) and glucagon (Millipore, Cat # GL-32K) radioimmunoassay (RIA) kits. cAMP levels were measured by cAMP kit (Arbor Assays, DetectX Cat # K019-H1).

[1] = Plasma MEDICA16αα exposure in STZ diabetic rats (LC/MS); type: in vivo; conditions: Sprague-Dawley, rat, po, 15 mg/kg, oral 15 mg/kg b.i.d, data not shown
Experimental: Plasma aliquots of 100 μl were vortex-mixed with 50 μl of formic acid:methanol (1:1 v/v) solution containing an internal standard, extracted into n-hexane, centrifuged, and the hexane layer was evaporated to dryness. The residue was reconstituted in the mobile phase and injected into the LC/MS system [Waters Micromass ZQ mass spectrometer (Waters Co.)]. LC/MS conditions were as follows:)(Bridge MS; RP8 column, 3.5 μm, 2.1×100 mm column (Waters Co.); column temperature was 35° C.; isocratic mobile phase, methanol:water (82:18 v/v) containing 0.1% formic acid, at a flow rate of 0.2 ml/min; detector tuned to 500 L/hr nitrogen flow; source temperature; 400° C.; cone voltage 30V; ionization mode ESI+; 365 and 393 m/z for MEDICA16αα and the internal standard, respectively. Calibration curves were linear and validated in the 100 ng/ml to 5000 ng/ml range, with accuracy of 7-9% relative error and precision of 8-10% relative standard deviation.

[2] = test system: SHAM (control) non-diabetic rats; assay: Fasting blood glucose in SHAM (control) non-diabetic rats; type: in vivo, rat; conditions: oral 15 mg/kg b.i.d
Experimental: (§3) SHAM (control) rats were injected with 0.1 M of cold citrate buffer (pH 4.5). STZ diabetic or SHAM rats were dosed twice daily by gavage (orally) with 1% CMC (Sigma Aldrich C5678), or with HOOC—C(CH3)2—(CH2)12—C(CH3)2—COOH (2,2,15,15-tetramethylhexadecane-1,16-dioic acid) also termed herein “MEDICA16αα”, “Medica16αα” or M16αα(15 mg/kg body weight) suspended in 1% CMC, or injected intraperitoneal (i.p.) with Neutral Protamine Hagedorn (NPH) insulin (3 u/kg body weight b.i.d), as indicated.
(§4) Tail vein FBG was verified daily by a glucometer (Glucometer®, Accu-Check® Performa, Roche Diagnostics). Urine secretion, food and water consumption were measured in standard metabolic cages (Tecniplast™ Metabolic Cage Systems for Rodents) for 48 hour periods. Samples were collected and recorded every 12 hour.

STZ diabetic rats = assay: Anti-diabetic efficacy in streptozotocin (STZ) diabetic rats (FBG, IPGTT, IPITT, fluid balance, insulin/glucagon content); type: in vivo, rat
Experimental: Male Sprague-Dawley (SD) rats weighing 250-275 gr were fed ad libitum (Harlan Teklad 2018), had free access to water, and were kept on a 12:12 h light:dark cycle. Experimental type 1 diabetes (T1D) was induced in overnight fasted rats by a single intra-peritoneal injection of streptozotocin (STZ, 60 mg/kg body weight, Sigma Aldrich) freshly prepared in 0.1 M of cold citrate buffer (pH 4.5), followed by oral 10% glucose solution for the next 24 hours to overcome STZ-induced acute hypoglycemia. STZ diabetic rats (defined as having a fasting blood glucose (FBG) level higher than 300 mg/dl) were selected for further studies.
as §3, §1, §4
Overnight fasted rats were injected i.p (1 gr glucose/kg bw) with 20% dextrose solution (Teva Medical). Tail vein blood was sampled on 0, 30, 60, 90 and 120 minutes following glucose injection.
Fasted rats (5 hours fast) were injected i.p (2 u/kg bw) with HumulinR insulin (Eli Lilly). Tail blood glucose levels were measured by glucometer at 0, 15, 30, 60, and 120 min following insulin injection.
as §2

## CC(C)(CCCCCCCCCCCCC(C)(C)C(=O)O)C(=O)O [MEDICA16αα, 2,2,15,15-tetramethylhexadecane-1,16-dioic acid]
Hepatic gluconeogenesis
  hepatic cAMP levels: suppressing hepatic cAMP levels
  hepatic phospho-ACC(Ser79) (AMPK activation): phosphorylation of its downstream ACC(Ser79) substrate
[1]; read-out: plasma MEDICA16αα exposure, non-responsive rats
  concentration at 10 days: 0.026 ± 0.0087 µg/mL
[1]; read-out: plasma MEDICA16αα exposure, responsive rats
  concentration at 10 days: 0.0225 ± 0.0044 µg/mL
[2]
  hypoglycemia: did not result in hypoglycemia
STZ diabetic rats; STZ diabetic rats, stand-alone treatment
  pancreatic and/or plasma insulin and glucagon content: not accounted for by significant increase in pancreatic and/or plasma insulin, neither by significant decrease in glucagon content
STZ diabetic rats; STZ/MEDICA Res rats, stand-alone
  fluid consumption and excretion: partial decrease
STZ diabetic rats; STZ/MEDICA Res rats, stand-alone 15 mg/kg b.i.d
  blood glucose level in i.p glucose tolerance test (IPGTT): amelioration in blood glucose level
STZ diabetic rats; oral 15 mg/kg b.i.d, 10 consecutive days, stand-alone (no insulin), all-or-none response
  STZ diabetic rats in which FBG was normalized (FBG<250 mg/dL): about 40%
STZ diabetic rats; oral 15 mg/kg b.i.d, stand-alone
  treated STZ diabetic rats that remained non responsive (FBG >250 mg/dl): 60%
